For twelve compounds, EC50, IC50 and inhibition results are on record in patent US10800776B2, “Fluorine-containing triazolopyridine, and manufacturing method, pharmaceutical composition, and application thereof” (SHANGHAI INSTITUTE OF MATERIA MEDICA, CHINESE ACADEMY OF …, priority 2016, dated 2020).

Some results are limits rather than exact numbers.

Series [1] has as its target mGluR2 (Homo sapiens (Human), UniProt Q14416). The series is described as follows: In vitro activity test for mGluR2 (HDB Fluo-8 calcium fluorescence, HEK/mGluR2 cell line). It counts as cell-based. An excerpt: Experimental materials: HEK/mGluR2 cell line (human […] transfected HEK cell line), DMEM (FBS) medium, positive control LY487379 (purchased from sigma; CAS: to 352317-17-1)
Experimental instrument: FLIPR Tetra real-time fluorescence imaging analysis system
Experimental method: HDB Fluo-8 calcium fluorescence detection method
Experimental principle: HDB Fluo-8 calcium ion fluorescence detection method is a fast, simple and reliable fluorescence detection method of intracellular calcium concentration changes. The Fluo 8-AM fluorescent dye is an acetyl methyl ester derivative of Fluo 8 which can easily penetrate into the cell membrane by culture. The fluorescent dye in the cell will be hydrolyzed by intracellular esterase, the resulting Fluo 8 as a polar molecule, cannot easily pass through the lipid bimolecular membrane, and will be retained in the cell, and combine with calcium (Ca^2+) to produce fluoresces.
Cells expressing GPCR receptor protein (mGluR2) were first calibrated with a calcium ion sensitive fluorescent probe and then stimulated with the compound. After stimulation, the receptor activates the calcium ion mobilization, and the fluorescent probe captures the calcium ion to induce the fluorescence signal. The signal can be read by a fluoroscopy plate. The fluorescent plate reader contains a sample addition for compound addition, thus enabling the change of the fluorescence value of the compound be read in real time.

The target in series [2] is hERG potassium channel (Homo sapiens (Human), UniProt Q12809). As to the kind of experiment: hERG potassium channel toxicity assay (hERG patch clamp). It counts as cell-based. Conditions: for IC50: hERG patch clamp; for inhibition at 40 µM: at maximum concentration 40 μM. The method, then: Experimental method: hERG patch clamp detection method
Experimental procedure: Compound preparation: the stock solution of a compound was diluted with extracellular fluid, 2 μL of the compound stock solution was added to 998 μL extracellular fluid, and then serially diluted 5 times in an extracellular fluid containing 0.2% DMSO to obtain the final concentration to be tested.

Setting [3] is: human, hERG, read-out: Inhibition rate (%).

Chain of mGluR2 (Q14416 19-872): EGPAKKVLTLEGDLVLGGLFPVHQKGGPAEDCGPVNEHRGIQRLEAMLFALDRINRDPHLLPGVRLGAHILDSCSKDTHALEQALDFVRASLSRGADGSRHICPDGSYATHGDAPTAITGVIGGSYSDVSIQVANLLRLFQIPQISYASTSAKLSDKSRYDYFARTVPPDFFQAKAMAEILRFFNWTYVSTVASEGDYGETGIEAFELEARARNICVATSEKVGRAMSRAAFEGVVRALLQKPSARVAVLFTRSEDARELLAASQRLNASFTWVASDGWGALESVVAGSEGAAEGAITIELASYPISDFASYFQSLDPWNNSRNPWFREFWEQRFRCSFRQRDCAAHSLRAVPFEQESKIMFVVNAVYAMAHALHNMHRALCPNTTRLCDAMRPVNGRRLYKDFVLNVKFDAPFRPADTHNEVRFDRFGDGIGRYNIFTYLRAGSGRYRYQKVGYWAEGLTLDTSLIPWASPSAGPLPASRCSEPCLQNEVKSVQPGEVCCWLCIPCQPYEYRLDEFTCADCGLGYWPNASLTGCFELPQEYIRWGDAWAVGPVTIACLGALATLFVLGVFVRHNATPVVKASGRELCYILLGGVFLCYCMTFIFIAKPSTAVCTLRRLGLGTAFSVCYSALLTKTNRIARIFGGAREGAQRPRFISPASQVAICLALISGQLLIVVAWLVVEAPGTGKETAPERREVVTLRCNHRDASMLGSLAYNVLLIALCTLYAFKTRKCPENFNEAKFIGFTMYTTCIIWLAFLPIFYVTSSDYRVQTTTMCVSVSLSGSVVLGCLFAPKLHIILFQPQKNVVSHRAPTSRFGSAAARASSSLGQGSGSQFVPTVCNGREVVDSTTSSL
Chain of hERG potassium channel (Q12809 whole entry): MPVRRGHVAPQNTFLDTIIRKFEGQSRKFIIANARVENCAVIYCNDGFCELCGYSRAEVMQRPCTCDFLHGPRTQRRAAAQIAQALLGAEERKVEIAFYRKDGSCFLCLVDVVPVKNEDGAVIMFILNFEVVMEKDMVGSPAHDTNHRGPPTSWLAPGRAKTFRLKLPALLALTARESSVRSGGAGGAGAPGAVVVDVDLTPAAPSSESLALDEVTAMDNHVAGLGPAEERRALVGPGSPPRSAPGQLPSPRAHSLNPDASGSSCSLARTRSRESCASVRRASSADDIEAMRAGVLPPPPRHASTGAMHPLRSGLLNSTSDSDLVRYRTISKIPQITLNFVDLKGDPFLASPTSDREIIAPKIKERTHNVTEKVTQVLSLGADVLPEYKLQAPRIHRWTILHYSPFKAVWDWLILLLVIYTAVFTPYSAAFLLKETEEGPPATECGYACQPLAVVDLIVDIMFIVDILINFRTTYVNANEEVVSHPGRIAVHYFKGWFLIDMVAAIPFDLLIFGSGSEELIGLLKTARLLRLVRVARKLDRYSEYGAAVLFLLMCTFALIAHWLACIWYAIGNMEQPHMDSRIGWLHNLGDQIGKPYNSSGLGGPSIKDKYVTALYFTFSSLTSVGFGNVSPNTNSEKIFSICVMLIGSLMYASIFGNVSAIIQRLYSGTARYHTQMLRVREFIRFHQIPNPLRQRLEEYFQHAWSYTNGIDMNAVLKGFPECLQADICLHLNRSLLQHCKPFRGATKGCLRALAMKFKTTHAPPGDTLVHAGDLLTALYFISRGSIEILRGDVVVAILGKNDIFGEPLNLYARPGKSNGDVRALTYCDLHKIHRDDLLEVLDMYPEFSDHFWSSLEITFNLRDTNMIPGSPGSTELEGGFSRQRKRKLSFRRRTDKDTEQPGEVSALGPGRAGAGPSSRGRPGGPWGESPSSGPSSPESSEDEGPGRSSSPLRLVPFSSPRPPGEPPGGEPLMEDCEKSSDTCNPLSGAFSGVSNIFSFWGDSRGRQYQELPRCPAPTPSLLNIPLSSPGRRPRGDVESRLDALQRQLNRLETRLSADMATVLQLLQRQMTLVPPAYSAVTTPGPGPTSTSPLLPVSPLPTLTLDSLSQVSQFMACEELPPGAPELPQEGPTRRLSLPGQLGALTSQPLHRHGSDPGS

Usually EC50 stands for the concentration at which the effect is half-maximal. The term IC50 denotes the concentration at which inhibition is half-maximal. High values mean a need for much substance, low ones inhibition by little substance. What is called inhibition is the share of the control response that was lost under treatment. For `Cc1cccc(-c2ccn3c(CC4CC4(F)F)nnc3c2Cl)c1` (centres unmarked) [Compound 36, 8-chloro-3-((2,2-difluorocyclopropyl)methyl)-7-(m-tolyl)-[1,2,4] triazole[4,3-a]pyridine], in series [1], the EC50 was found to be 130 nM. In series [2], this compound gave a half-inhibitory concentration (IC50) of over 40000 nM. In series [2] (setting [3]), the inhibition at 40 µM worked out at 48.9%.

In the case of `CC(C)(O)c1ccc(-c2ccn3c(CC4CC4(F)F)nnc3c2)cc1` (centres unmarked) [Compound 21, 2-(4-(3-((2,2-difluorocyclopropyl)methyl)-[1,2,4]triazole[4,3-a]pyridin-7-yl)phenyl)propan-2-ol], in series [1], the half-maximal effective concentration (EC50) was 226 nM. Also, in series [2], the half-inhibitory concentration (IC50) is 31900 nM. The inhibition at 40 µM in series [2] (setting [3]) came out at 52.8%.

With `COC(=O)c1ccc(-c2ccn3c(CC4CC4(F)F)nnc3c2Cl)c(Cl)c1` (centres unmarked) [Compound 46, Methyl 3-Chloro-4-(8-chloro-3-((2,2-difluorocyclopropyl)methyl)-[1,2,4]triazole[4,3-a]pyridine-7-yl)benzoate], the concentration giving a half-maximal response (EC50) in series [1] was 230 nM. Further, half-maximal inhibition in series [2] (IC50) was put at 10800 nM. The inhibition at 40 µM in series [2] (setting [3]) is 82.5%.

With `Fc1cccc(-c2ccn3c(CC4CC4(F)F)nnc3c2)c1` (centres unmarked) [Compound 11, 3-((2,2-Difluorocyclopropyl)methyl)-7-(3-fluorophenyl)-[1,2,4]triazole [4,3-a]pyridine], in series [1], the concentration for a half-maximal effect (EC50) amounted to 704 nM. The compound also displayed an IC50 in series [2] of over 40000 nM. The inhibition at 40 µM in series [2] (setting [3]) worked out at 45.9%.

Turning to `Cc1cc(-c2ccn3c(CC4CC4(F)F)nnc3c2)ccc1F` (centres unmarked) [Compound 27, 3-((2,2-difluorocyclopropyl)methyl)-7-(4-fluoro-3-methylphenyl)-[1,2,4] triazole[4,3-a]pyridine], the EC50 in series [1] came to 868 nM. Also, the IC50 in series [2] is over 40000 nM. For the same compound, in series [2] (setting [3]), the inhibition at 40 µM amounted to 49.9%.

For `COc1cc(N)c(Cl)cc1C(=O)NC1CCN(CCCOc2ccc(F)cc2)CC1OC` (centres unmarked) [Cisapride, reference compound], the inhibition at 3 µM in series [2] (human, hERG, positive compound, maximum test concentration 3 μM, read-out: Inhibition rate (%)) was 96.6%.

As to `Fc1ccc(-c2ccn3c(CC4CC4(F)F)nnc3c2)cc1` (centres unmarked) [Compound 13, 3-((2,2-difluorocyclopropyl)methyl)-7-(4-fluorophenyl)-[1,2,4]triazole [4,3-a]pyridine], the EC50 in series [1] is 381 nM. The compound further had a half-maximal inhibitory concentration (IC50) in series [2] of 31900 nM. In addition, in series [2] (setting [3]), the inhibition at 40 µM was 52.8%.

Take `Fc1cccc(-c2ccn3c(CC4CC4(F)F)nnc3c2Cl)c1` (centres unmarked) [Compound 37, 8-chloro-3-((2,2-difluorocyclopropyl)methyl)-7-(3-fluorophenyl)-[1,2,4] triazole[4,3-a]pyridine]: the EC50 in series [1] was 190 nM. Moreover, the IC50 in series [2] was found to be 15000 nM. In addition, in series [2] (setting [3]), the inhibition at 40 µM was found to be 57%.

Regarding `Cc1cc(F)ccc1-c1ccn2c(CC3CC3(F)F)nnc2c1` (centres unmarked) [Compound 26, 3-((2,2-difluorocyclopropyl)methyl)-7-(4-fluoro-2-methylphenyl)-[1,2,4] triazole[4,3-a]pyridine], in series [1], the EC50 is 781 nM. In series [2], this compound showed a half-inhibitory concentration (IC50) of over 40000 nM. In addition, the inhibition at 40 µM in series [2] (setting [3]) stood at 49.4%.

As to `FC1(F)CC1Cc1nnc2cc(-c3cccc4c3OCC4)ccn12` (centres unmarked) [Compound 32, 3-((2,2-difluorocyclopropyl)methyl)-7-(2,3-benzodihydrofuran-7-yl)-[1,2,4]triazole[4,3-a]pyridine], the 50% effective concentration (EC50) in series [1] turned out to be 825 nM. In series [2], this compound gave an IC50 of over 40000 nM. For the same compound, the inhibition at 40 µM in series [2] (setting [3]) was 51%.

`COc1ccc(-c2ccn3c(CC4CC4(F)F)nnc3c2)cc1F` (centres unmarked) [Compound 23, 3-((2,2-difluorocyclopropyl)methyl)-7-(3-fluoro-4-methoxyphenyl)-[1,2,4] triazole[4,3-a]pyridine]: in series [1], the EC50 amounted to 849 nM. The same compound displayed an IC50 in series [2] of over 40000 nM. Further, the inhibition at 40 µM in series [2] (setting [3]) worked out at 46%.

Take `COc1ccccc1Oc1ccc(N(Cc2cccnc2)S(=O)(=O)CC(F)(F)F)cc1` [LY487379, reference compound]: the EC50 in series [1] worked out at 230 nM.
